In patent US10112918B2, “15-oxospiramilactone derivatives, preparation method and uses thereof” (Kunming Institute of Botany, The Chinese Academy of Sciences, priority 2013, dated 2018):
Read-outs that look alike come from different tables or passages of the source. Blank lines part the entries; values can stand above or below the compound they belong to.

How the values were obtained:
Assay type in all cases: cell-based
[1] = tested on: HL-60 (human promyelocytic leukemia cells); assay: MTT inhibition of tumor cell growth, HL-60; settings: Homo sapiens
Outline: (§1)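 IC50 values derive from a 5-concentration re-screen following a 40 μM primary test, with 48 h treatment and MTT colorimetry at 595 nm.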

[2] = tested on: SMMC-7721 (human hepatoma cells); assay: MTT inhibition of tumor cell growth, SMMC-7721; settings: Homo sapiens
Outline: as §1

[3] = tested on: A-549 (Human lung adenocarcinoma cells); assay: MTT inhibition of tumor cell growth, A-549; settings: Homo sapiens
Outline: as §1

[4] = tested on: MCF-7 (human breast cancer cells); assay: MTT inhibition of tumor cell growth, MCF-7; settings: Homo sapiens
Outline: as §1

[5] = tested on: SW-480 (human colon cancer cells); assay: MTT inhibition of tumor cell growth, SW-480; settings: Homo sapiens
Outline: as §1

[6] = tested on: Wnt signaling pathway (Top-Flash reporter gene); assay: Top-Flash Wnt reporter gene assay in HEK293T cells with Wnt3a conditioned medium; settings: Homo sapiens, HEK-293T, 6 h, 6 h
Outline: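 HEK293T transfected with TOP-flash (5 ng/well) plus GFP plasmid for normalization, then treated 6 h with mouse Wnt3a conditioned medium from L cells, with or without compound. GFP-normalized luciferase minus DMSO-only background, scaled to Wnt-induced activity; IC50 at 0.5 relative residual activity from 4-parameter logistic fit.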

[7] = HL-60, 48 h, Table 2, derivatives having potential Michael reaction acceptor
[8] = HL-60, 48 h, Table 5, derivatives having double Michael reaction acceptor
[9] = SMMC-7721, 48 h, Table 2, derivatives having potential Michael reaction acceptor
[10] = SMMC-7721, 48 h, Table 5, derivatives having double Michael reaction acceptor
[11] = A549, 48 h, Table 2, derivatives having potential Michael reaction acceptor
[12] = A549, 48 h, Table 5, derivatives having double Michael reaction acceptor
[13] = MCF7, 48 h, Table 2, derivatives having potential Michael reaction acceptor
[14] = MCF7, 48 h, Table 5, derivatives having double Michael reaction acceptor
[15] = SW480, 48 h, Table 2, derivatives having potential Michael reaction acceptor, read-out: IC50 SW-480
[16] = SW480, 48 h, Table 5, derivatives having double Michael reaction acceptor, read-out: IC50 SW-480
[17] = SW480, 48 h, Table 6, double Michael reaction acceptor derivatives, read-out: IC50 SW-480, derivatives having double Michael reaction acceptor
[18] = Table 9, HEK293T, Wnt3a conditioned medium, read-out: IC50(μM), inhibitory activity on the Wnt signaling pathway
[19] = SW480, 48 h, Table 6, 7-hydroxyl derivatives and controls, read-out: IC50 SW-480, 7-hydroxyl derivatives
[20] = Table 8, HEK293T, Wnt3a conditioned medium, read-out: IC50 (μM), inhibitory activity on the Wnt signaling pathway
[21] = HL-60, 48 h, Table 3, single Michael reaction acceptor, modified lactonic ring
[22] = SMMC-7721, 48 h, Table 3, single Michael reaction acceptor, modified lactonic ring
[23] = A549, 48 h, Table 3, single Michael reaction acceptor, modified lactonic ring
[24] = MCF7, 48 h, Table 3, single Michael reaction acceptor, modified lactonic ring
[25] = SW480, 48 h, Table 3, single Michael reaction acceptor, modified lactonic ring, read-out: IC50 SW-480
[26] = HL-60, 48 h, Table 1, 7-hydroxy derivatives of S-3
[27] = SMMC-7721, 48 h, Table 1, 7-hydroxy derivatives of S-3
[28] = A549, 48 h, Table 1, 7-hydroxy derivatives of S-3
[29] = MCF7, 48 h, Table 1, 7-hydroxy derivatives of S-3
[30] = SW480, 48 h, Table 1, 7-hydroxy derivatives of S-3, read-out: IC50 SW-480
[31] = Table 7 (second), derivatives modified on 7-hydroxyl of S-3, HEK293T, Wnt3a conditioned medium, read-out: IC50 (μM), inhibitory activity on the Wnt signaling pathway

SMILES: C=C1C(=O)[C@@]23CC[C@@H](CC2[C@@]24CCC[C@@](C)(COC2)C14)C(=C)C3=O (stereo partly drawn) [Compound 31]
IC50 [1, 7]: 3.6 µM
IC50 [1, 8]: 1.31 µM
IC50 [2, 9]: 4.44 µM
IC50 [2, 10]: 1.79 µM
IC50 [3, 11]: 6.11 µM
IC50 [3, 12]: 0.76 µM
IC50 [4, 13]: 8.86 µM
IC50 [4, 14]: 1.71 µM
IC50 [5, 15]: 5.43 µM
IC50 [5, 16]: 0.62 µM
IC50 [5, 17]: 0.45 µM
IC50 [6, 18]: 7.1 ± 0.7 µM

SMILES: C=C1C(=O)[C@@]23CC[C@@H](CC2[C@@]24CCC[C@@](C)(CN(CCO)C2)C14)C(=C)[C@@H]3O (stereo partly drawn) [Compound 89]
IC50 ([1]; HL-60, Table 7 (first), alkaloid derivatives, 48 h): 4.82 µM
IC50 ([2]; SMMC-7721, Table 7 (first), alkaloid derivatives, 48 h): 1.48 µM
IC50 ([3]; A549, Table 7 (first), alkaloid derivatives, 48 h): 3.04 µM
IC50 ([4]; MCF7, Table 7 (first), alkaloid derivatives, 48 h): 6.98 µM
IC50 ([5]; SW480, Table 7 (first), alkaloid derivatives, 48 h, read-out: IC50 SW-480): 9.84 µM
IC50 ([6]; read-out: IC50 (μM), inhibitory activity on the Wnt signaling pathway): 8.34 ± 0.9 µM

SMILES: C=C1C(=O)C23CC[C@H]1CC2[C@]1(COC(C)=O)CCC[C@@](C)(COC(C)=O)C1C[C@H]3O (stereo partly drawn) [Compound 45]
IC50 ([1]; HL-60, 48 h, Table 4, derivatives obtained by reduction of the lactonic ring): 4.74 µM
IC50 ([2]; SMMC-7721, 48 h, Table 4, derivatives obtained by reduction of the lactonic ring): 7.83 µM
IC50 ([3]; A549, 48 h, Table 4, derivatives obtained by reduction of the lactonic ring): 3.49 µM
IC50 ([4]; MCF7, 48 h, Table 4, derivatives obtained by reduction of the lactonic ring): 4.82 µM
IC50 ([5]; SW480, 48 h, Table 4, derivatives obtained by reduction of the lactonic ring, read-out: IC50 SW-480): 9.89 µM
IC50 [5, 19]: 2.81 µM
IC50 [6, 20]: 9.98 ± 1 µM

SMILES: C=C1C(=O)C23CC[C@H]1CC2[C@]1(C(=O)O)CCC[C@@](C)(CO)C1C[C@H]3O (stereo partly drawn) [Compound 38]
IC50 [1, 21]: > 40 µM
IC50 [2, 22]: > 40 µM
IC50 [3, 23]: > 40 µM
IC50 [4, 24]: > 40 µM
IC50 [5, 25]: > 40 µM
IC50 [6, 20]: > 60 µM

SMILES: C=C1C(=O)[C@@]23CC[C@@H](CC2[C@@]24CCC[C@@](C)(COC2=O)C14)C(=C)[C@@H]3O (stereo partly drawn) [Compound 16]
IC50 [1, 7]: 5.56 µM
IC50 [2, 9]: 12 µM
IC50 [3, 11]: 4.77 µM
IC50 [4, 13]: 3.09 µM
IC50 [5, 15]: 11.4 µM
IC50 [6, 18]: 8.27 ± 1.24 µM

SMILES: C=C1C(=O)[C@]23CC[C@H]1CC2[C@@]12CCC[C@@](C)(COC1)C2[C@H](CO)C3=O (stereo partly drawn) [Compound 30]
IC50 [1, 7]: 1.94 µM
IC50 [2, 9]: 1.9 µM
IC50 [3, 11]: 0.77 µM
IC50 [4, 13]: 1.44 µM
IC50 [5, 15]: 1.53 µM
IC50 ([6]; Table 10, HEK293T, Wnt3a conditioned medium, read-out: IC50 (μM), inhibitory activity on the Wnt signaling pathway): 15.4 ± 1.5 µM

SMILES: C=C1C(=O)[C@]23CC[C@H]1CC2[C@@]12CCC[C@@](C)(CO[C@H]1OC)C2C[C@H]3O (stereo partly drawn) [Compound 21]
IC50 [1, 21]: 4.2 µM
IC50 [2, 22]: 1.87 µM
IC50 [3, 23]: 3.17 µM
IC50 [4, 24]: 5.04 µM
IC50 [5, 25]: 4.19 µM
IC50 [5, 19]: 2.9 µM
IC50 [6, 20]: 27.4 ± 0.98 µM

SMILES: C=C1C(=O)[C@@]23CC[C@@H](CC2[C@@]24CCC[C@@](C)(CO[C@H]2OC)C14)C(=C)C3=O (stereo partly drawn) [Compound 23]
IC50 [1, 8]: 0.51 µM
IC50 [2, 10]: 0.15 µM
IC50 [3, 12]: 0.2 µM
IC50 [4, 14]: 0.24 µM
IC50 [5, 16]: 0.39 µM
IC50 [5, 17]: 0.79 µM
IC50 [6, 18]: 6.72 ± 1.11 µM

Results, then the compound that gave them:

IC50 [1, 26]: 3.53 µM
IC50 [2, 27]: 3.83 µM
IC50 [3, 28]: 2.69 µM
IC50 [4, 29]: 4.18 µM
IC50 [5, 30]: 2.89 µM
IC50 [6, 31]: 12.4 ± 1 µM
SMILES: C=C1C(=O)C23CC[C@H]1CC2[C@@]12CCC[C@@](C)(COC1=O)C2C[C@H]3OS(=O)(=O)c1ccccc1 (stereo partly drawn) [Compound 1s]

IC50 [1, 26]: 4.01 µM
IC50 [2, 27]: 3.05 µM
IC50 [3, 28]: 2.14 µM
IC50 [4, 29]: 3.11 µM
IC50 [5, 30]: 2.22 µM
IC50 [6, 31]: 18.9 ± 2.48 µM
SMILES: C=C1C(=O)C23CC[C@H]1CC2[C@@]12CCC[C@@](C)(COC1=O)C2C[C@H]3OC(=O)c1ccco1 (stereo partly drawn) [Compound 1n]

IC50 [1, 26]: 1.24 µM
IC50 [2, 27]: 1.79 µM
IC50 [3, 28]: 0.79 µM
IC50 [4, 29]: 3.4 µM
IC50 [5, 30]: 2.16 µM
IC50 [6, 31]: 18.6 ± 1.26 µM
SMILES: C=C1C(=O)C23CC[C@H]1CC2[C@@]12CCC[C@@](C)(COC1=O)C2C[C@H]3OC(=O)/C=C/c1ccccc1 (stereo partly drawn) [Compound 1p]
